Measurements published in patent US6015941A, “Peptide derivatives of tachyplesin having antimicrobial activity” (Pioneer Hi-Bred International, Inc., priority 1997, dated 2000).
Where two headings read alike, the source gives them in different places. Positions of bridges follow the written chain, without caps; N, C: chain ends. Residues, ends and D or L forms follow the SMILES beside them.

Columns and labels:
[1] = system: rabbit erythrocytes
[2] = system: Aspergillus flavus; type: cell-based
[3] = system: Fusarium graminearum; type: cell-based
[4] = system: Fusarium moniliforme; type: cell-based
[5] = system: E. coli; type: cell-based
[6] = system: Salmonella typhimurium (ATCC 13311); type: cell-based
[7] = system: Pseudomonas aeruginosa (ATCC 21036); type: cell-based
[8] = system: Staphylococcus aureaus (ATCC 25923); type: cell-based, S. aureus
[9] = system: Shigella dysenteriae (ATCC 13313); assay: Disk diffusion assay, human pathogens; type: cell-based
[10] = system: Candida albicans (ATCC 10231); type: cell-based
[11] = system: maize protoplasts (Black Mexican Sweet)
[12] = system: human erythrocytes; conditions: red cells of human, 100 μM
[13] = system: human erythrocytes; conditions: cited from earlier work
[14] = average of two independent measurements, SD 15%
[15] = minimum complete inhibitory concentration, average of two measurements

Question: Which “lysis of rabbit erythrocytes” value [1] does the source give for `CC[C@H](C)[C@H](NC(=O)CN)C(=O)NCC(=O)N[C@@H](C)C(=O)N[C@H](C(=O)N[C@@H](CC(C)C)C(=O)N[C@@H](CCCCN)C(=O)N[C@H](C(=O)N[C@@H](CC(C)C)C(=O)N[C@H](C(=O)N[C@H](C(=O)NCC(=O)N[C@@H](CC(C)C)C(=O)N1CCC[C@H]1C(=O)N[C@@H](C)C(=O)N[C@@H](CC(C)C)C(=O)N[C@H](C(=O)N[C@@H](CO)C(=O)N[C@@H](Cc1c[nH]c2ccccc12)C(=O)N[C@H](C(=O)N[C@@H](CCCCN)C(=O)N[C@@H](CCCNC(=N)N)C(=O)N[C@@H](CCCCN)C(=O)N[C@@H](CCCNC(=N)N)C(=O)N[C@@H](CCC(N)=O)C(=O)N[C@@H](CCC(N)=O)C(N)=O)[C@@H](C)CC)[C@@H](C)CC)[C@@H](C)O)[C@@H](C)O)C(C)C)C(C)C` [Melittin] here?
Answer: Its value is “complete lysis”.

Question: With `CC[C@H](C)[C@@H]1NC(=O)CNC(=O)[C@H](CCCNC(=N)N)NC(=O)[C@H](Cc2ccc(O)cc2)NC(=O)[C@@H]2CSSC[C@H](NC1=O)C(=O)N[C@@H](Cc1ccc(O)cc1)C(=O)N[C@@H](CCCNC(=N)N)C(=O)N[C@@H](CCCNC(=N)N)C(=O)N[C@H](C(=O)N[C@@H](CCCNC(=N)N)C(=O)O)CSSC[C@H](NC(=O)[C@H](Cc1c[nH]c3ccccc13)NC(=O)[C@@H](N)CCCCN)C(=O)N[C@@H](Cc1ccccc1)C(=O)N[C@@H](CCCNC(=N)N)C(=O)N[C@@H](C(C)C)C(=O)N2` [TP, tachyplesin] (H-KWCFRVCYRGICYRRCR-OH; disulfide 3-16, 7-12) as the compound, how does the “A. flavus MCIC” value [2] read?
Answer: Its value is 34.

Question: And the A. flavus MIC [2]?
Answer: Its A. flavus MIC is 13 µM.

Question: What about the “F. graminearum MIC” value [3, 14] of the same compound?
Answer: The value was 8 µM.

Question: And the “F. graminearum MCIC” value [3, 15]?
Answer: The value was 17 µM.

Question: And the “F. moniliforme MCIC” value [4]?
Answer: The value was 21.

Question: What about the F. moniliforme MIC [4] of the same compound?
Answer: The F. moniliforme MIC was 8 µM.

Question: What about the “E. coli MCIC” value [5] of the same compound?
Answer: Its value is 3.

Question: What about the E. coli MIC [5] of the same compound?
Answer: Its E. coli MIC is 1 µM.

Question: And the S. typhimurium zone size [6]?
Answer: The S. typhimurium zone size was 18 mm.

Question: What about the P. aeruginosa zone size [7] of the same compound?
Answer: Its P. aeruginosa zone size is 14 mm.

Question: What about the S. aureus zone size [8] of the same compound?
Answer: The S. aureus zone size was 18 mm.

Question: And the “S. dysenteria zone size” value ([9]; 50 μg per disk)?
Answer: The value was 18 mm.

Question: And the “S. dysenteria zone size” value ([9]; 100 μg per disk)?
Answer: Its value is 18 mm.

Question: What about the C. albicans zone size [10] of the same compound?
Answer: Its C. albicans zone size is 16 mm.

Question: And the “order of toxicity as measured by cell viability” value [11]?
Answer: The value was “TPF>TP/TPM>TPI/TPL>TPY>TPA/TPV and TPD”.

Question: What about the “lysis of rabbit erythrocytes” value [1] of the same compound?
Answer: Its value is “little or no activity”.

Question: What about the “hemolysis of human erythrocytes” value [12] of the same compound?
Answer: Its value is “about 15%”.

Question: With `CC[C@H](C)[C@@H]1NC(=O)CNC(=O)[C@H](CCCNC(=N)N)NC(=O)[C@H](Cc2ccc(O)cc2)NC(=O)[C@@H]2CSSC[C@H](NC1=O)C(=O)N[C@@H](Cc1ccc(O)cc1)C(=O)N[C@@H](CCCNC(=N)N)C(=O)N[C@@H](CCCNC(=N)N)C(=O)N[C@H](C(=O)N[C@@H](CCCNC(=N)N)C(N)=O)CSSC[C@H](NC(=O)[C@H](Cc1c[nH]c3ccccc13)NC(=O)[C@@H](N)CCCCN)C(=O)N[C@@H](Cc1ccccc1)C(=O)N[C@@H](CCCNC(=N)N)C(=O)N[C@@H](C(C)C)C(=O)N2` [amidated-TP] (H-KWCFRVCYRGICYRRCR-NH2; disulfide 3-16, 7-12) as the compound, how does the “hemolysis of human erythrocytes” value [12] read?
Answer: Its value is “about 30%”.

Question: What about the “lysis of human erythrocytes” value [13] of the same compound?
Answer: The value was 100%.

Question: What does the source list for cecropin B?
Answer: A. flavus MCIC [2]: > 20; A. flavus MIC [2]: > 20 µM; F. graminearum MIC [3, 14]: 3 µM; F. graminearum MCIC [3, 15]: 5 µM; F. moniliforme MCIC [4]: 20; F. moniliforme MIC [4]: 3 µM

Question: With mastoparan [mastoporan] as the compound, how does the “A. flavus MCIC” value [2] read?
Answer: Its value is > 50.

Question: What about the A. flavus MIC [2] of the same compound?
Answer: The A. flavus MIC was 24 µM.

Question: And the “F. graminearum MCIC” value [3]?
Answer: The value was 8.

Question: What about the F. graminearum MIC [3] of the same compound?
Answer: The F. graminearum MIC was 5 µM.

Question: And the “F. moniliforme MCIC” value [4]?
Answer: The value was 11.

Question: And the F. moniliforme MIC [4]?
Answer: Its F. moniliforme MIC is 3 µM.
